Results taken from patent US5360796A, “Imidazo[1,2-a]pyridinylalkyl phosphonic acid compounds for treatment of neurotoxic injury” (G. D. Searle & Co., priority 1991, dated 1994).
Where a name gives a salt, the structure may show the parent alone. Read-outs that look alike come from different tables or passages of the source.

Assays:
NMDA receptor = experiment: NMDA-Selective Glutamate Binding Assay (L-[3H]glutamate); design: species or system rat; details: 12.5 nM L-[3H]glutamate, synaptic plasma membranes, read-out: NMDA Receptor Binding Data, Ki IC50 Binding NMDA
Procedure: (§1) Synaptic plasma membranes (SPM) were prepared as previously described [Monahah, J. B. and Michel, J., "Identification and Characterization of an N-methyl-D-aspartate-specific L[^3 H]glutamate Recognition Site in Synaptic Plasma Membranes, J. Neurochem., 48, 1699-1708 (1987)]. The SPM were stored at a concentration of 10-15 mg/ml in 0.32M sucrose, 0.5 mM EDTA, 1 mM MgSO4, 5 mM Tris/SO4, pH 7.4, under liquid nitrogen. The identity and purity of the subcellular fractions were confirmed by both electron microscopy and marker enzymes. Protein concentrations were determined by using a modification of the method of Lowry [Ohnishi, S. T. and Barr, J. K., "A Simplified Method of Quantitating Proteins using the Biuret and Phenol Reagents", Anal. Biochem., 86, 193-197 (1978)]. The SPM were treated identically for the [^3 H]AMPA (QUIS), [^3 H]kainate and sodium-dependent L-[^3 H]-glumatate binding assays. The SPM were thawed at room temperature, diluted twenty-fold with 50mM Tris/acetate, pH 7.4, incubated at 37° C. for 30 minutes, and centrifuged at 100,000 g for 15 minutes. The dilution, incubation, and centrifugation was repeated a total of three times. Prior to use in the NMDA-specific L-[^3 H]-glutamate binding assay the SPM were thawed, diluted twenty fold with 50 mM Tris/acetate, pH 7.4 containing 0.04% (v/v) Triton X-100, incubated for 30 minutes at 37° C. and centrifuged as described above. The Triton X-100 treated membranes were washed with 50 mM Tris/acetate, pH 7.4 and centrifuged at 100,000 g for 15 minutes a total of four times. […] The basic procedure for the receptor subclass binding assays was similar. This general method involved adding the radioligand (12.5 nM L-[^3 H] glutamate; 0.5 nM [^3 H]kainate or 10 nM [^3 H]AMPA) to the appropriate concentration of the test compound and initiating the assay by the addition of ice cold synaptic plasma membranes (0.2-0.45 mg). The binding assays were performed in 1.5 mL centrifuge tubes with the total volume adjusted to 1.0 mL. Additions of test compounds were made in 50 mM Tris/acetate, pH 7.4 and incubations were carried out at 0°-4° C. The incubation time for the NMDA and the AMPA binding assays was 10 minutes, for the kainate binding assay 60 minutes and for the sodium-dependent glutamate binding assay 15 minutes. The AMPA binding assay contained 100 mM KSCN and the sodium-dependent glutamate binding assay contained 150 mM sodium acetate in addition to the previously described reagents. To terminate the incubation, the samples were centrifuged for 15 minutes at 12,000 g and 4° C. in a Beckman Microfuge 12. The supernatant was aspirated and the pelleted membranes dissolved in Beckman BTS-450 tissue solubilizer for a minimum of 6 hours at room temperature. Beckman MP scintillation cocktail containing 7 mL/1 acetic acid was then added and the samples counted on a Beckman LS 5800 or 3801 liquid scintillation counter with automatic corrections for quenching and counting efficiency. Nonspecific binding was defined as the residual binding in the presence of either excess L-glutamate (0.1-0.4 mM), kainate (0.01 mM), or NMDA (0.5 mM), and was 15-25% of the total binding in the NMDA binding assay, 19-27% in the AMPA binding assay, 20-30% in the kainate binding assay and 10-15% in the sodium-dependent binding assay. Radioligand binding to the synaptic plasma membranes was analyzed using Scatchard and Hill transformations and the Ki values of the compounds determined using logit-log transformations. Calculations and regression analysis were performed using templates developed for Lotus 1, 2, 3 as previously described [Pullan, L. M. "Automated Radioligand Receptor Binding Analysis with Templates for Lotus", Computer Appln. Biosci., 3, 131 (1987)]. Binding results are reported in Table I for example compounds of the invention.

AMPA = experiment: [3H]AMPA (QUIS) binding assay; design: species or system rat; details: 10 nM [3H]AMPA, 100 mM KSCN, synaptic plasma membranes, pH 7.4, 0-4° C., 10 min; read-out: NMDA Receptor Binding Data, Ki IC50 Binding AMPA
Procedure: as §1

[1] = test system: TCP (1-[1-(2-thienyl)cyclohexyl]piperidine) binding; experiment: TCP Modulation Assay; design: species or system rat; details: for Ki: 2 nM tritiated TCP, 0.05 mM L-glutamate, rat brain SPM, read-out: TCP Ki IC50
Procedure: The effect on the TCP (1-[1-(2-thienyl)cyclohexyl]piperidine) binding was measured in rat brain synaptic membranes (SPM) prepared as previously described [J. B. Monahah & J. Michel; J. Neurochem. […] Prior to their use in the binding assay, frozen SPM were thawed, diluted twenty fold with 50 mM Tris/acetate (pH 7.4 containing 0.04% (v/v) Triton X-100), incubated for 30 min. at 37° C. and centrifuged at 95,000 xg for 15 min. The Triton X-100 treated SPM were washed with 5 mM Tris/HCl, pH 7.4 and centrifuged a total of six times. […] The samples were filtered through glass fiber filters (Schleicher & Schuell #32) which have been pretreated with 0.05% (v/v) polyethylenimine, washed 4 times with 2 ml of ice-cold 5 mM Tris/HCl buffer, and then counted on a Beckman LS 5800 liquid scintillation counter with automatic corrections for quenching and counting efficiency. Inhibition of TCP binding was measured as a decrease in the binding in the presence of 0.05 mM L-glutamate. Non-specific binding was defined as the residual binding in the presence of […] phencyclidine.

cGMP in cerebellum = experiment: Assay for Effect on cGMP Levels in Cerebellum; type: in vivo, mouse (Swiss-Webster); details: Mus musculus, sc, 0.5 h; 30 min prior to sacrifice; read-out: Decrease in cGMP ED50
Procedure: The purpose of this assay is to determine the extent of in vivo bioavailability and the potency as an NMDA antagonist of compound of the invention as compared to known NMDA antagonists, namely, 3(2-carboxypiperizine-4-yl)propyl-1-phosphonic acid (CPP) and cis-4-phosphonomethyl-2-piperidinecarboxylic acid (CGS 19755). Male Swiss-Webster mice (17-24 g were injected sub-cutaneously (s.c.) with compound of the invention and the known NMDA antagonist standards 30 minutes prior to sacrifice by focussed microwave irradiation. Groups consisted of 7-10 mice. Compounds of Ex. #7 was dissolved in isotonic saline and all compounds were administered in a volume of 0.2 ml per mouse. Cerebella samples were extracted in IN HCl. Hydrochloric acid in extracts of the cerebellum were freeze-dried for assay of cGMP with a commercial RIA kit (NEN). Statistics (Dunett's t-test) were performed as described previously [P. L. Wood et al., Neurochem., 19, 975-982 (1980)]. ED50 values were calculated from log-logit transformation of the dose-response data.

NMDA = details: D. E. Murphy et al, J. Pharmacol. Exp. Ther. 1987; cited from earlier work

With `O=C(O)c1cn2cc(CP(=O)(O)O)ccc2n1` [Example 13, 6-(phosphonomethyl)imidazo[1,2-a]pyridine-2-carboxylic acid] the Ki (NMDA receptor; pH 7.4, 0-4° C., 10 min) was > 100 µM and the Ki (AMPA) was > 300 µM.

In the case of `O=C(O)c1cn2c(P(=O)(O)O)cccc2n1` [Example 53, 5-phosphonoimidazo[1,2-a]pyridine-2-carboxylic acid], the Ki (NMDA receptor; pH 7.4, 0-4° C., 10 min) is reported as > 10 µM.

In the case of `O=C(O)c1cn2c(CP(=O)(O)O)c(Cl)ccc2n1` [Example 30, 6-chloro-5-(phosphonomethyl)imidazo[1,2-a]pyridine-2-carboxylic acid], the Ki (NMDA receptor; pH 7.4, 0-4° C., 10 min) is reported as > 100 µM and the Ki (AMPA) is reported as > 300 µM.

In the case of `O=C(O)c1cn2c(C(O)P(=O)(O)O)cccc2n1` (stereo not drawn) [Example 57, 5-(hydroxyphosphonomethyl)imidazo[1,2-a]pyridine-2-carboxylic acid, monohydrochloride], the “TCP Binding Data (result in words)” value ([1]; no number given) is reported as “Antag”, the Ki (NMDA receptor; pH 7.4, 0-4° C., 10 min) is reported as 5.8 µM and the Ki (AMPA) is reported as > 300 µM.

With `O=C(O)c1cn2cccc(CP(=O)(O)O)c2n1` [Example 23, 8-(phosphonomethyl)imidazo[1,2-a]pyridine-2-carboxylic acid] the Ki ([1]; pH 7.4, 25° C., 60 min) was 14 µM, the Ki ([1]; second batch) was 7.7 µM and the Ki (NMDA receptor; pH 7.4, 0-4° C., 10 min) was 4.5 µM. For the same compound, the Ki (NMDA receptor; Second batch) was 10.5 µM and the Ki (AMPA) was > 300 µM.

Work on `O=C(O)[C@H]1C[C@@H](CP(=O)(O)O)CCN1` (relative stereo) [CGS 19755, cis-4-phosphonomethyl-2-piperidinecarboxylic acid, reference compound] yielded an ED50 (cGMP in cerebellum) of 1 mg/kg.

For `Cc1ccc(P(=O)(O)O)c2nc(C(=O)O)cn12` [Example 49, 5-methyl-8-phosphonoimidazo[1,2-a]pyridine-2-carboxylic acid], the Ki (NMDA receptor; pH 7.4, 0-4° C., 10 min) was > 10 µM.

For `Cc1c(C(=O)O)nc2c(CP(=O)(O)O)cccn12` [Example 67, 3-methyl-8-(phosphonomethyl)imidazo[1,2-a]pyridine-2-carboxylic acid, monohydrochloride], the Ki (NMDA receptor; pH 7.4, 0-4° C., 10 min) was > 100 µM and the Ki (AMPA) was > 300 µM.

With `O=C(O)c1cn2ccc(CP(=O)(O)O)cc2n1` [Example 18, 7-(phosphonomethyl)imidazo[1,2-a]pyridine-2-carboxylic acid] the Ki (NMDA receptor; pH 7.4, 0-4° C., 10 min) was > 100 µM and the Ki (AMPA) was > 300 µM.

In the case of `O=C(O)C1CN(CCCP(=O)(O)O)CCN1` (stereo not drawn) [CPP, 3-(2-carboxypiperazin-4-yl)propyl-1-phosphonic acid, reference compound], the “NMDA antagonism (in words)” value (NMDA) is listed as “potent and selective NMDA antagonist” and the ED50 (cGMP in cerebellum) is listed as 7.4 mg/kg.
